The nature of this data set: Solubility of dicamba and its sodium salt.

Each structure is given as a SMILES string.

`COc1c(Cl)ccc(Cl)c1C(=O)O` [dicamba, 3,6-dichloro-2-methoxybenzoic acid]: the “amount dissolved in mixtures of a water-miscible glycol and water” value (glycol 30% or higher by weight of the mixture) is given as “about 45 % by weight of the solution”. In the case of `COc1c(Cl)ccc(Cl)c1C(=O)[O-].[Na+]` [sodium salt of dicamba, sodium dicamba], the aqueous solubility result (fully neutralized (molar equivalence of 1) sodium salt, water) is listed as “about 35 wt. % acid equivalent”.

Source of the values: patent US12193437B2, “Pesticidal compositions” (Monsanto Technology LLC, priority 2016, dated 2025).
